Assay results: the CheMixHub ionic liquid set

Assay: xn = mol fraction of the nth substance listed
Settings: 101.3 kPa

COC(=O)OC + CCCC[n+]1ccn(C)c1.O=S(=O)([N-]S(=O)(=O)C(F)(F)F)C(F)(F)F
viscosity [mPa·s]
Settings | 288.15 K | 293.15 K | 298.15 K | 303.15 K | 308.15 K | 313.15 K
x2 = 0 | 0.668 | 0.628 | 0.588 | 0.553 | 0.524 | –
x2 = 0.003644 | 0.699 | 0.653 | 0.611 | 0.575 | 0.541 | 0.511
x2 = 0.004269 | 0.706 | 0.659 | 0.616 | 0.58 | 0.545 | 0.515
x2 = 0.005082 | 0.715 | 0.667 | 0.624 | 0.586 | 0.551 | 0.52
x2 = 0.005901 | 0.722 | 0.674 | 0.631 | 0.593 | 0.557 | 0.525
x2 = 0.00751 | 0.741 | 0.69 | 0.646 | 0.606 | 0.57 | 0.537
x2 = 0.008724 | 0.746 | 0.695 | 0.651 | 0.61 | 0.575 | 0.541
x2 = 0.009626 | 0.749 | 0.7 | 0.657 | 0.617 | 0.583 | 0.549
x2 = 0.01106 | 0.781 | 0.727 | 0.678 | 0.636 | 0.597 | 0.562
x2 = 0.012 | 0.792 | 0.737 | 0.687 | 0.644 | 0.605 | 0.57
x2 = 0.01269 | 0.801 | 0.744 | 0.695 | 0.651 | 0.61 | 0.576
x2 = 0.01439 | 0.817 | 0.759 | 0.708 | 0.663 | 0.621 | 0.586
x2 = 0.01534 | 0.827 | 0.768 | 0.717 | 0.671 | 0.629 | 0.592
x2 = 0.01537 | 0.827 | 0.768 | 0.717 | 0.671 | 0.629 | 0.592
x2 = 0.01726 | 0.847 | 0.786 | 0.734 | 0.686 | 0.643 | 0.604
x2 = 0.01986 | 0.874 | 0.811 | 0.755 | 0.706 | 0.662 | 0.621
x2 = 0.02243 | 0.902 | 0.836 | 0.778 | 0.728 | 0.681 | 0.641
x2 = 0.02369 | 0.914 | 0.847 | 0.788 | 0.736 | 0.689 | 0.648
x2 = 0.02616 | 0.937 | 0.869 | 0.808 | 0.754 | 0.706 | 0.663
x2 = 0.02694 | 0.945 | 0.876 | 0.814 | 0.759 | 0.711 | 0.668
x2 = 0.02906 | 0.968 | 0.897 | 0.834 | 0.778 | 0.728 | 0.683
x2 = 0.03392 | 1.016 | 0.94 | 0.873 | 0.814 | 0.76 | 0.714
x2 = 0.03978 | 1.072 | 0.991 | 0.921 | 0.857 | 0.802 | 0.751
x2 = 0.04295 | 1.102 | 1.019 | 0.945 | 0.88 | 0.822 | 0.77
x2 = 0.04638 | 1.134 | 1.048 | 0.971 | 0.904 | 0.845 | 0.791
